Where two headings read alike, the source gives them in different places.
Key:
[1] = test system: hand-foot syndrome induced by anti-tumor agents; assay: Prevention of hand-foot syndrome induced by anti-tumor agents in rats, NO-NSAID ointment on hind paws (Table 2-2); type: in vivo, SD rats; details: Rattus norvegicus, topical, read-out: Control rate; for responders at 1 %: ointment 1% wt; for responders at 3 %: ointment 3% wt
Outline: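 Female SD rats (8 weeks, ~200 g; 10/group) received anti-tumour agents by daily oral gavage in Cremophor EL:ethanol 1:1 diluted ~3× with PBS. NO-NSAID or blank ointment was applied to hind paws once daily, 4 h restrained, then wiped off. Control rate = blank-group minus treated-group hand-foot syndrome incidence.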

HUVEC cells = assay: CCK-8 cell viability: alleviation of proliferative toxicity of anti-tumor agents on HUVEC cells (Tables 7-1, 7-2); type: cell-based; details: for activation at 100 µM: Homo sapiens, 24 h, percentage increase in viable cells vs anti-tumor agent alone, read-out: Response rate % (average)
Outline: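 HUVEC cells were treated with anti-tumor agent (DMSO solvent) alone or combined with NO-NSAID (ethanol or water solvent), and NO-NSAID solvent controls were used for correction. After 24-48 h of culture, viability was read by CCK-8 to derive proliferative toxicity and how much NO-NSAID mitigated it.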

[2] = 120 h, Sorafenib 80 mg/kg once a day, Days 5
[3] = 432 h, Regorafenib 90 mg/kg once a day, Days 18
[4] = Afatinib (10 μM), NO-NSAID 100 μM
[5] = Cabozantinib (5 μM), NO-NSAID 100 μM
[6] = Dabrafenib (10 μM), NO-NSAID 100 μM
[7] = Everolimus (5 μM), NO-NSAID 100 μM
[8] = Infigratinib (15 μM), NO-NSAID 100 μM
[9] = Lapatinib (5 μM), NO-NSAID 100 μM
[10] = Lenvatinib (10 μM), NO-NSAID 100 μM
[11] = Olmutinib (10 μM), NO-NSAID 100 μM
[12] = Regorafenib (5 μM), NO-NSAID 100 μM
[13] = Selumetinib (5 μM), NO-NSAID 100 μM
[14] = Sorafenib (5 μM), NO-NSAID 100 μM
[15] = Sunitinib (5 μM), NO-NSAID 100 μM

`CC(=O)Oc1ccccc1C(=O)OCOC(=O)CCCCCO[N+](=O)[O-]` [Compound A3] showed a responders at 1 % [1, 2] of 50%, a responders at 3 % [1, 2] of 57.1% and a responders at 1 % [1, 3] of 42.9%. For the same compound, the responders at 3 % [1, 3] was 71.4%, the “NO-NSAID response rate % (average)” value (HUVEC cells; Afatinib (10 μM), NO-NSAID 0.1 μM) was 15% and the “NO-NSAID response rate % (average)” value (HUVEC cells; Afatinib (10 μM), NO-NSAID 1 μM) was 24%. For the same compound, the “NO-NSAID response rate % (average)” value (HUVEC cells; [4]) was 32%, the “NO-NSAID response rate % (average)” value (HUVEC cells; Afatinib (10 μM), NO-NSAID 500 μM) was 22% and the “NO-NSAID response rate % (average)” value (HUVEC cells; Cabozantinib (5 μM), NO-NSAID 0.1 μM) was 14%. For the same compound, the “NO-NSAID response rate % (average)” value (HUVEC cells; Cabozantinib (5 μM), NO-NSAID 1 μM) was 29%, the “NO-NSAID response rate % (average)” value (HUVEC cells; [5]) was 56% and the “NO-NSAID response rate % (average)” value (HUVEC cells; Cabozantinib (5 μM), NO-NSAID 500 μM) was 24%. For the same compound, the “NO-NSAID response rate % (average)” value (HUVEC cells; Dabrafenib (10 μM), NO-NSAID 0.1 μM) was 25%, the “NO-NSAID response rate % (average)” value (HUVEC cells; Dabrafenib (10 μM), NO-NSAID 1 μM) was 30% and the “NO-NSAID response rate % (average)” value (HUVEC cells; [6]) was 64%. The “NO-NSAID response rate % (average)” value (HUVEC cells; Dabrafenib (10 μM), NO-NSAID 500 μM) was 33%, the “NO-NSAID response rate % (average)” value (HUVEC cells; Everolimus (5 μM), NO-NSAID 0.1 μM) was −8% and the “NO-NSAID response rate % (average)” value (HUVEC cells; Everolimus (5 μM), NO-NSAID 1 μM) was −8%. The “NO-NSAID response rate % (average)” value (HUVEC cells; [7]) was 56%, the “NO-NSAID response rate % (average)” value (HUVEC cells; Everolimus (5 μM), NO-NSAID 500 μM) was 1% and the activation at 100 µM (HUVEC cells; [4]) was 32%. It also gave an activation at 100 µM (HUVEC cells; Anlotinib (5 μM), NO-NSAID 100 μM) of 73%, an activation at 100 µM (HUVEC cells; Apatinib (10 μM), NO-NSAID 100 μM) of 15% and an activation at 100 µM (HUVEC cells; Axitinib (10 μM), NO-NSAID 100 μM) of 35%. The activation at 100 µM (HUVEC cells; [5]) was 56%, the activation at 100 µM (HUVEC cells; [6]) was 64% and the activation at 100 µM (HUVEC cells; Dacomitinib (5 μM), NO-NSAID 100 μM) was 32%. The activation at 100 µM (HUVEC cells; Encorafenib (5 μM), NO-NSAID 100 μM) was 28%, the activation at 100 µM (HUVEC cells; Erdafitinib (10 μM), NO-NSAID 100 μM) was 59% and the activation at 100 µM (HUVEC cells; [7]) was 56%. It also gave an activation at 100 µM (HUVEC cells; Famitinib (5 μM), NO-NSAID 100 μM) of 39%, an activation at 100 µM (HUVEC cells; Fruquintinib (10 μM), NO-NSAID 100 μM) of 22% and an activation at 100 µM (HUVEC cells; Gefitinib (10 μM), NO-NSAID 100 μM) of 26%. It also gave an activation at 100 µM (HUVEC cells; [8]) of 28%, an activation at 100 µM (HUVEC cells; [9]) of 40% and an activation at 100 µM (HUVEC cells; [10]) of 69%. For the same compound, the activation at 100 µM (HUVEC cells; [11]) was 57%, the activation at 100 µM (HUVEC cells; [12]) was 55% and the activation at 100 µM (HUVEC cells; [13]) was 49%. For the same compound, the activation at 100 µM (HUVEC cells; [14]) was 3%, the activation at 100 µM (HUVEC cells; [15]) was 50% and the activation at 100 µM (HUVEC cells; Vemurafenib (5 μM), NO-NSAID 100 μM) was 80%. The “NO-NSAID response rate % (average)” value (HUVEC cells; Infigratinib (15 μM), NO-NSAID 0.1 μM) was 18%, the “NO-NSAID response rate % (average)” value (HUVEC cells; Infigratinib (15 μM), NO-NSAID 1 μM) was 28% and the “NO-NSAID response rate % (average)” value (HUVEC cells; [8]) was 28%. For the same compound, the “NO-NSAID response rate % (average)” value (HUVEC cells; Infigratinib (15 μM), NO-NSAID 500 μM) was 20%, the “NO-NSAID response rate % (average)” value (HUVEC cells; Lapatinib (5 μM), NO-NSAID 0.1 μM) was 20% and the “NO-NSAID response rate % (average)” value (HUVEC cells; Lapatinib (5 μM), NO-NSAID 1 μM) was 20%. The “NO-NSAID response rate % (average)” value (HUVEC cells; [9]) was 40%, the “NO-NSAID response rate % (average)” value (HUVEC cells; Lapatinib (5 μM), NO-NSAID 500 μM) was 19% and the “NO-NSAID response rate % (average)” value (HUVEC cells; Lenvatinib (10 μM), NO-NSAID 0.1 μM) was 21%. The “NO-NSAID response rate % (average)” value (HUVEC cells; Lenvatinib (10 μM), NO-NSAID 1 μM) was 14%, the “NO-NSAID response rate % (average)” value (HUVEC cells; [10]) was 69% and the “NO-NSAID response rate % (average)” value (HUVEC cells; Lenvatinib (10 μM), NO-NSAID 500 μM) was 20%. For the same compound, the “NO-NSAID response rate % (average)” value (HUVEC cells; Olmutinib (10 μM), NO-NSAID 0.1 μM) was 27%, the “NO-NSAID response rate % (average)” value (HUVEC cells; Olmutinib (10 μM), NO-NSAID 1 μM) was 35% and the “NO-NSAID response rate % (average)” value (HUVEC cells; [11]) was 57%. The “NO-NSAID response rate % (average)” value (HUVEC cells; Olmutinib (10 μM), NO-NSAID 500 μM) was 23%, the “NO-NSAID response rate % (average)” value (HUVEC cells; Regorafenib (5 μM), NO-NSAID 0.1 μM) was 32% and the “NO-NSAID response rate % (average)” value (HUVEC cells; Regorafenib (5 μM), NO-NSAID 1 μM) was 37%. For the same compound, the “NO-NSAID response rate % (average)” value (HUVEC cells; [12]) was 55%, the “NO-NSAID response rate % (average)” value (HUVEC cells; Regorafenib (5 μM), NO-NSAID 500 μM) was 26% and the “NO-NSAID response rate % (average)” value (HUVEC cells; Selumetinib (5 μM), NO-NSAID 0.1 μM) was 28%. The “NO-NSAID response rate % (average)” value (HUVEC cells; Selumetinib (5 μM), NO-NSAID 1 μM) was 53%, the “NO-NSAID response rate % (average)” value (HUVEC cells; [13]) was 49% and the “NO-NSAID response rate % (average)” value (HUVEC cells; Selumetinib (5 μM), NO-NSAID 500 μM) was 34%. For the same compound, the “NO-NSAID response rate % (average)” value (HUVEC cells; Sorafenib (5 μM), NO-NSAID 0.1 μM) was 13%, the “NO-NSAID response rate % (average)” value (HUVEC cells; Sorafenib (5 μM), NO-NSAID 1 μM) was 7% and the “NO-NSAID response rate % (average)” value (HUVEC cells; [14]) was 3%. The “NO-NSAID response rate % (average)” value (HUVEC cells; Sorafenib (5 μM), NO-NSAID 500 μM) was 29%, the “NO-NSAID response rate % (average)” value (HUVEC cells; Sunitinib (5 μM), NO-NSAID 0.1 μM) was 10% and the “NO-NSAID response rate % (average)” value (HUVEC cells; Sunitinib (5 μM), NO-NSAID 1 μM) was 37%. The “NO-NSAID response rate % (average)” value (HUVEC cells; [15]) was 50% and the “NO-NSAID response rate % (average)” value (HUVEC cells; Sunitinib (5 μM), NO-NSAID 500 μM) was 7%.
